Data reported in publication PMC10287566, “Signaling-specific inhibition of the CB1 receptor for cannabis use disorder: phase 1 and phase 2a randomized trials” (Nature Medicine, 2023).
Where two headings read alike, the source gives them in different places.

Tests used:
[1] = Plasma pharmacokinetics/toxicokinetics in dogs (oral and i.v.); format: in vivo; conditions: both sexes, Beagle, dog; for bioavailability: ratio of AUC per os and i.v.
Procedure: For both conditions, animals were fasted overnight before dosing and up to approximately 2 h afterwards. […] Blood samples were drawn from the cephalic or jugular veins at the following timepoints: before dose and then at 0.125 h (7.5 min), 0.25 h, 0.5 h, 1 h, 2 h, 4 h, 6 h, 8 h, 10 h, 24 h and 48 h after dosing.
Blood samples were immediately cooled on ice. Plasma was prepared by centrifugation for 7 min at 1,600g under refrigeration (4 ± 2 °C), performed within 15 min at maximum after blood sampling. Plasma was divided into two polypropylene tubes containing at least 500 µl and then stored frozen (≤−70 °C) until assay.
For all studies in rats and the 91-d toxicity study in dogs, the timepoints on days 1, 28 and 91 were: before dose and 1, 3, 5, 8 and 24 h after dose. For the 28-d toxicity study in dogs, the timepoints on days 1 and 28 were: before dose and 1, 2, 4, 8, and 24 h after dose. In both species, only mean pre-dose plasma concentrations were calculated on day 14 for the 28-d study and on day 28 for the 91-d study. For the experiments in rats, blood samples for drug analysis were taken from the satellite animals used for the toxicokinetic (TK) analysis (n = 3 per sex per timepoint and per group). For experiments performed in dogs, blood samples were drawn from the cephalic or jugular veins of all animals (n = 3 per sex per group).
TK analysis was performed separately per sex on mean concentrations by a non-compartmental analysis (NCA). The linearity of exposure was evaluated by comparison of the AUC/dose and Cmax/dose ratios. Possible accumulation was evaluated from the ratio of AUC on day 28 and on day 1 for each dose level and each sex. Samples lower than the limit of quantification (LLQ) values (that is, < 8.00 ng ml^−1 in rats and <20.0 ng ml^−1 in dogs) were not included in the calculation of TK parameters.

[2] = target: T1, hERG (human ether-a-go-go-related gene) (Homo sapiens, UniProt Q12809); assay: hERG tail current in transfected HEK293 cells (GLP); format: cell-based; conditions: GLP safety pharmacology
T1 construct: expressed in transfected cells; host or cells: HEK293 (stably transfected)
T1 sequence (Q12809 whole entry): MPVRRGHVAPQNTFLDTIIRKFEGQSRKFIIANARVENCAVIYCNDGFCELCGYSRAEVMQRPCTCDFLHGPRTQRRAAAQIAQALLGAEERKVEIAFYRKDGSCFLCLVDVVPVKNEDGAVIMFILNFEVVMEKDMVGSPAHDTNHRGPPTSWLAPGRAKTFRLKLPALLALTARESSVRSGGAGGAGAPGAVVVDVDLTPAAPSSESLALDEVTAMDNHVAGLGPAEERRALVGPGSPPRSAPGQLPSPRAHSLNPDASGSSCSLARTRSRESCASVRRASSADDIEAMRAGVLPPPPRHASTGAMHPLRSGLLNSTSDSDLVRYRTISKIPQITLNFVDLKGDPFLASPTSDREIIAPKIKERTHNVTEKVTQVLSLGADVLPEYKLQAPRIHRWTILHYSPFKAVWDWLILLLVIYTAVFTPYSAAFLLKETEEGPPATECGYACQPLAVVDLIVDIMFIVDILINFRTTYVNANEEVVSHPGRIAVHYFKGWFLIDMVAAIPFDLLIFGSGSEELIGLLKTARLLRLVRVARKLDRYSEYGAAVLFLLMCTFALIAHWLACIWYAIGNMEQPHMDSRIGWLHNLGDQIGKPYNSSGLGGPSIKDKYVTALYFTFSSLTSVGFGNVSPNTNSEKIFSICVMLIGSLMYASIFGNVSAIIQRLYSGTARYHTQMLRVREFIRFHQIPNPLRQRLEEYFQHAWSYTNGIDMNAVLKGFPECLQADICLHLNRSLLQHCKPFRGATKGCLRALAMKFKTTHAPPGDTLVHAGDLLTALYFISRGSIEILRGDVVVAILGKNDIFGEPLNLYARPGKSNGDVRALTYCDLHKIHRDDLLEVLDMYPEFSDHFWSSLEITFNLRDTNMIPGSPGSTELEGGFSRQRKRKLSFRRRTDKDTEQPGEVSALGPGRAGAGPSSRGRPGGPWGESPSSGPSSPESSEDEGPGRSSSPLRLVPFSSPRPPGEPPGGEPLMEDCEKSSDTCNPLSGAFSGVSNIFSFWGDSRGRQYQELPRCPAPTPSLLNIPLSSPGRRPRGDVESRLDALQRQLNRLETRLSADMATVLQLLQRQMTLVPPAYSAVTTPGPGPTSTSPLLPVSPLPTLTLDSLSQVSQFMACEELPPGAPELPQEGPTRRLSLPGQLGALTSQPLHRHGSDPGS
Procedure: Cells were clamped to −80 mV, depolarized to 0 mV for 5 s allowing activation of hERG current and repolarized to −50 mV for 5 s allowing hERG tail current to deactivate. This experimental procedure was repeated at a frequency of 0.06 Hz. Currents were filtered at 1 kHz and acquired at the frequency of 2 kHz. Amplitude of hERG tail current was measured during the repolarizing pulse from 0 to −50 mV. […] Currents were measured before and after exposure to the test compound. The individual data were collected using pClamp software (release 8.2, AXON Instruments, Molecular Devices).

[3] = 91-d repeated oral toxicity study in rats (GLP); format: in vivo; conditions: both sexes, Sprague Dawley SPF, rat, in vivo, rats
[4] = test system: rats; assay: 91-d repeated oral toxicity study in rats (GLP); format: in vivo; conditions: for change in blood urea level: male rats, week 14
[5] = 91-d repeated oral toxicity study in dogs (GLP); format: in vivo; conditions: both sexes, Beagle, dog, in vivo
[6] = test system: dogs; assay: 91-d repeated oral toxicity study in dogs (GLP); format: in vivo
[7] = test system: 85 receptors; assay: Eurofins high-throughput binding screen; conditions: 10 µM
[8] = test system: squirrel monkeys; assay: i.v. self-administration of THC in squirrel monkeys; format: in vivo, Saimiri sciureus
From the text: Two experimental models were used: (1) THC i.v. self-administration and (2) THC-induced reinstatement of THC seeking. These two approaches were used to model the maintenance of daily cannabis use and cannabis seeking after a period of abstinence.
For the self-administration experiments, four male squirrel monkeys (800–1,100 g; the estimated age was 17 years for three monkeys and 14 years for the fourth one) were used because this species reliably self-administers i.v. THC. Monkeys were trained to lever press for an i.v. injection of THC (4 µg kg^–1 per injection) under a 10-response fixed ratio schedule of drug injection (FR10; each 10th response on the lever produced an injection of THC, followed by a 60-s timeout). Number of lever presses and number of injections per session were recorded.

[9] = test system: mice; assay: THC-induced increase in food intake (fasting-refeeding); format: in vivo
[10] = test system: mice; assay: Precipitated withdrawal in THC-dependent mice; format: in vivo; conditions: highest dose tested […]
Procedure: From day 1 to days 4–5, mice were injected i.p. with vehicle or THC (20 mg kg^−1) twice per day. On the last day of treatment, mice in the THC group received rimonabant or AEF0117. All other animals received the respective vehicle. […] For the measure of precipitated withdrawal, mice were placed in a novel home cage, and a video camera was positioned in front of each cage to record behavior. Scoring was performed for 1 min every 5-min period. Two withdrawal signs were analyzed—paw tremors and head shaking—because they are the most common signs of THC withdrawal observed in mice[14].

[11] = test system: healthy volunteers; format: in vivo, human; conditions: MAD
Procedure: Participants were admitted to the research clinic at midday before dosing (day −1). In the SAD study, they remained in-house until day 8 for PK and PD samples and safety assessments. In the MAD study, participants remained in-house until day 14 and returned to the research facility on an outpatient basis to have PK and safety assessments at 216 h and 264 h (day 16 and day 18) after their last dose (day 7). Safety monitoring (physical examinations, vital sign measurements, 12-lead ECGs, clinical safety laboratory tests and AE monitoring) were performed throughout the studies. Psychometrics tests (Bond & Lader VAS, Addiction Research Center Inventory (49-item short form) (ARCI-49) and Profile of Mood States 65 self-report items (POMS-65)) and the Columbia-Suicide Severity Rating Scale (C-SSRS) test were performed at baseline, before dose and at 4 h and 24 h after dose on day 1 and day 7 (MAD study, only) and C-SSRS only at 24 h.

[12] = test system: CYP and phase II enzymes; assay: Drug metabolic pathways (CYP and phase II enzymes), metabolites; format: in vitro ADME
[13] = iv, 0.7 mg/kg, dogs i.v. 0.7 mg/kg
[14] = po, 0.7 mg/kg, dogs po 0.7 mg/kg single
[15] = po, 2 mg/kg, dogs po 2 mg/kg single, 91-day tox study
[16] = po, 2 mg/kg, dogs po 2 mg/kg theoretical (approx. 0.5 mg/kg received), 28-day tox study
[17] = po, 9 mg/kg, dogs po 9 mg/kg single, 28-day tox study
[18] = po, 20 mg/kg, dogs po 20 mg/kg single, 91-day tox study
[19] = po, 36 mg/kg, dogs po 36 mg/kg single, 28-day tox study
[20] = po, 65 mg/kg, dogs po 65 mg/kg single, 91-day tox study
[21] = oral, 91-day, highest dose tested
[22] = end of drug withdrawal period (week 18)

COc1ccc(CO[C@H]2CC[C@@]3(C)C(=CC[C@H]4[C@@H]5CC[C@H](C(C)=O)[C@@]5(C)CC[C@@H]43)C2)cc1 [AEF0117, 3β-(4-methoxybenzyloxy)pregn-5-en-20-one]
Tmax ([1]; dogs po 0.7 mg/kg single): 2.67 h
Tmax ([1]; dogs po 2 mg/kg theoretical (approx. 0.5 mg/kg received), 28-day tox study): 4 h
Tmax ([1]; dogs po 9 mg/kg single, 28-day tox study): 6 h
Tmax ([1]; dogs po 20 mg/kg single, 91-day tox study): 4 h
Tmax ([1]; dogs po 36 mg/kg single, 28-day tox study): 4 h
Tmax ([1]; dogs po 65 mg/kg single, 91-day tox study): 4 h
half-life ([1]; dogs, read-out: terminal half-life (converted)): 35.9 h
AUC(0-t) [1, 13]: 2190 ng·h/mL
Cmax [1, 13]: 505 ng/mL
half-life ([1]; iv, 0.7 mg/kg, dogs i.v. 0.7 mg/kg, manual linear regression of last three points, read-out: t½ (converted)): 35.9 h
half-life ([1]; iv, 0.7 mg/kg, dogs iv, read-out: half-life): 33.5 to 38.2 h
Tmax ([1]; iv, dogs i.v. 0.7 mg/kg): 0.125 h
bioavailability ([1]; oral, 0.7 mg kg^−1, dogs): ~68%
AUC(0-t) [1, 14]: 1450 ng·h/mL
Cmax [1, 14]: 138 ng/mL
half-life ([1]; po, 0.7 mg/kg, dogs po 0.7 mg/kg, manual linear regression of last three points, read-out: t½ (converted)): 28 h
bioavailability ([1]; po, 0.7 mg/kg, dogs): 68%
AUC(0-t) [1, 15]: 2910 ng·h/mL
Cmax [1, 15]: 241 ng/mL
AUC(0-t) [1, 16]: 1020 ng·h/mL
Cmax [1, 16]: 95 ng/mL
AUC(0-t) [1, 17]: 18500 ng·h/mL
Cmax [1, 17]: 1200 ng/mL
AUC(0-t) [1, 18]: 26500 ng·h/mL
Cmax [1, 18]: 2530 ng/mL
AUC(0-t) [1, 19]: 50300 ng·h/mL
Cmax [1, 19]: 3480 ng/mL
AUC(0-t) [1, 20]: 43500 ng·h/mL
Cmax [1, 20]: 3300 ng/mL
half-life ([1]; po, dogs per os, read-out: half-life): 24.4 to 31.6 h
adverse effects on hERG tail current [2]: did not show any adverse effects
NOAEL at 91 day [3, 21]: 65 mg/kg/day
NOAEL at 91 d ([3]; 91-d repeated oral): > 65 mg/kg/day
change in thymus weight, absolute value ([4]; female rats, 65 mg/kg/day, Day 122, vs vehicle): -17%
change in blood urea level ([4]; 20 mg): +13%
change in blood urea level ([4]; 65 mg): +10%
NOAEL at 91 d ([5]; 91-d repeated oral): > 65 mg/kg/day
NOAEL at 91 day [5, 21]: 65 mg/kg/day
change in eosinophil count ([6]; all dose groups, week 5): -41%
change in eosinophil count ([6]; all dose groups, week 14): -54%
change in lymphocyte count ([6]; all dose groups, week 14): -17 to -24%
change in eosinophil count [6, 22]: -66%
change in lymphocyte count [6, 22]: -19%
change in thymus weight vs vehicle ([6]; end of treatment period): -15 to -24%
binding activity at 85 receptors [7]: did not modify binding to any receptor
i.v. self-administration of THC ([8]; 15 µg kg^−1 oral): significantly reduced
% Inhibition ([8]; Self-administration of THC): 80%
ID50 ([8]; Self-administration of THC): 0.005 mg/kg
ID100 ([8]; Self-administration of THC): 0.015 mg/kg
THC's effects on food intake [9]: inhibited
% Inhibition ([9]; Increase in food intake): 100%
ID50 ([9]; Increase in food intake): 0.015 mg/kg
ID100 ([9]; Increase in food intake): 0.05 mg/kg
Overall effect: precipitated withdrawal in THC-dependent mice [10]: No
ARCI 49 sub-scores ([11]; 0.6-6 mg vs placebo): No relevant trend
Bond and Lader VAS (alertness, contentedness, calmness) ([11]; 0.6-6 mg vs placebo): No relevant differences between groups
POMS 65 derived sub-scores ([11]; 0.6-6 mg vs placebo, except one outlier participant): no dose related trend
C-SSRS: number of subjects with suicidal ideation or behavior ([11]; all doses 0.6-6 mg, Day 1 and Day 8): 0 n (%)
interaction with major drug metabolic pathways (CYP and phase II enzymes) [12]: does not modify the activity of, nor is it notably metabolized by
